According to US4424351A, “Pyrido[3,4-e]-as-triazines” (Egyt Gyogyszervegyeszeti Gyar, priority 1979, dated 1984):

What was measured:
in vivo = settings: mouse, mice, oral
Procedure: The acute toxicity of the new compounds having the general formula (I) was tested on mice. The substances to be tested were administered orally to the animals.

rats = assay: antiphlogistic effect, carrageenine-induced paw swelling (method of Winter); format: in vivo; settings: Rattus norvegicus, oral, paw volume before and 3 h after 0.1 ml 1% carrageenine, read-out: Dosage exerting 30% inhibition (antiphlogistic effect)
Procedure: The antiphlogistic effect of the new compounds according to the invention was investigated on rats by the method of Winter (J. Pharm. Exp. […] The volume of the treated paw was measured by […] before and 3 hours after challenge. The compounds to be tested were administered orally into the animals.

white mice = assay: motility inhibiting effect (orientation reflex, eight-channel Dews apparatus); format: in vivo; settings: for Therapeutical index (LD50/ED50), motility inhibiting effect: LD50/ED50, Dews apparatus, mice p.o.; for ED50: Mus musculus, 0.5 h, white mice, oral, pre-treatment of 30 minutes, light beam interceptions, read-out: ED50 p.o. (motility inhibiting effect)
Procedure: The effect of the new compounds exerted on the orientation reflex was tested on white mice in an eight-channel Dews apparatus, according to the method of Borsy et al. (Arch. Int. Pharmacodyn. 124, 1-2 /1960/). The number of light beam interceptions, caused by the movement of the animals, was recorded after a pre-treatment of 30 minutes. The test groups consisted of 3 mice. The ED50 values obtained in the investigation of motility-inhibiting effect, furthermore the therapeutical indices (LD50 /ED50) calculated therefrom are listed in Table 4.

[1] = system: animals treated with tetrabenazine; assay: tetrabenazine-antagonizing effect (closed palpebral fissures); format: in vivo; settings: for Therapeutical index (LD50/ED50), tetrabenazine-antagonizing effect: LD50/ED50, p.o.; for ED50: Mus musculus, oral, 30 min before 50 mg/kg tetrabenazine p.o., readings at 30, 60, 90 and 120 min summed
Procedure: The tetrabenzine-antagonizing effect of the new compounds was tested on groups consisting of 10 mice each. The animals belonging to the control group received an oral dosage of 20 ml/kg of 0.9% aqueous sodium chloride solution, whereas the other animals were treated orally with the compound to be tested. 30 minutes after the introduction of the active agent or the vehicle 50 mg/kg of tetrabenazine (3-isobutyl-9,10-[…]-1,2,3,4,6,7-hexahydrobenzo[a]quinolisine-2-one) were administered orally into the animals, and the animals with closed palpebral fissures were counted 30, 60, 90 and 120 minutes after the administration of tetrabenazine. The data obtained in the individual measuring times were added, and the percentage inhibition related to the controls was calculated.

mice [2] = assay: potentiation of hexobarbital-induced narcosis (method of Kaergaard et al.); format: in vivo; settings: for Therapeutical index (LD50/ED50), potentiation of hexobarbital-induced narcosis: LD50/ED50, mice p.o.; for ED50: Mus musculus, mice, oral, then 40 mg/kg hexobarbital i.v., 150% prolongation of sleeping time = positive, read-out: ED50 p.o. (potentiation of hexobarbital-induced narcosis)
Procedure: The hexobarbital-induced narcosis potentiating effect of the new compounds was tested by the method of Kaergaard et al. (Arch. Int. Pharmacodyn. 2, 170 /1967/) on groups consisting of 6 mice each. The animals belonging to the control group received an oral dosage of 20 ml/kg of 0.9% aqueous sodium chloride solution, whereas the other animals were treated orally with the compound to be tested. Thereafter 40 mg/kg of hexobarbital (5-/1-cyclohexenyl/-[…]) were administered intravenously into the animals. A 150% prolongation of the sleeping time, related to the average value observed in the controls, was regarded as positive response. The number of animals giving positive response was compared to the total number of the animals treated.

mice [3] = assay: analgesic effect, writhing test (acetic acid i.p.); format: in vivo; settings: for Therapeutical index (LD50/ED50), analgesic effect: LD50/ED50, writhing test, mice p.o.; for ED50: Mus musculus, mice, oral 1 h before 0.4 ml of 0.5% acetic acid i.p., dosage decreasing number of writhings by 50%, read-out: ED50 p.o. (analgesic effect)
Procedure: The analgesic effect of the new compounds according to the invention was investigated on mice by the so-called writhing test. […] The animals were treated orally with the compound to be tested one hour before the introduction of acetic acid. The animals belonging to the control group received vehicle only.

SMILES	LD50 (in vivo) [mg/kg]	ED30 (rats) [mg/kg]	Therapeutical index (LD50/ED50), motility inhibiting effect (white mice)	ED50 (white mice) [mg/kg]	Therapeutical index (LD50/ED50), tetrabenazine-antagonizing effect [1]	ED50 [1] [mg/kg]	Therapeutical index (LD50/ED50), potentiation of hexobarbital-induced narcosis (mice [2])	ED50 (mice [2]) [mg/kg]	Therapeutical index (LD50/ED50), analgesic effect (mice [3])	ED50 (mice [3]) [mg/kg]
CCC(=O)N1N=C(c2ccccc2)Nc2cnccc21.Cl [12 (HCl), 3-phenyl-1-propionyl-1,4-dihydro-pyrido[3,4-e]-as-triazine hydrochloride]	2000	30	40	50	50	40	200	10	–	–
CN(C)CCC=C1c2ccccc2CCc2ccccc21 [Amitryptiline, reference compound]	–	–	–	–	–	12	–	–	–	–
CC(=O)N1C=NN(C(C)=O)c2ccncc21 [Example 1, 1,4-diacetyl-1,4-dihydropyrido[3,4-e]-as-triazine]	360	25	–	–	–	–	11.4	25	–	–
CCC(=O)N1N=C(C)Nc2cnccc21 [Example 11, 3-Methyl-1-propionyl-1,4-dihydropyrido[3,4-e]-as-triazine]	500	30	–	–	–	–	25	20	–	–
CCC(=O)N1N=C(c2ccccc2)Nc2cnccc21 [Example 12, 3-phenyl-1-propionyl-1,4-dihydropyrido[3,4-e]-as-triazine]	> 2000	26	>57.4	35	–	–	32.3	62	above 40	50
CC(=O)N1N=C(c2ccccc2)Nc2cnccc21 [Example 17, 3-phenyl-1-acetyl-1,4-dihydropyrido[3,4-e]-as-triazine]	1400	–	46.67	30	25	56	40	35	60.87	23
CCC(=O)N1C=NN(C(=O)CC)c2ccncc21 [Example 18, 1,4-dipropioyl-1,4-dihydropyrido[3,4-e]-as-triazine]	450	12	–	–	–	–	–	–	75	6
CCCC(=O)N1N=C(c2ccccc2)Nc2cnccc21 [Example 19, 3-phenyl-1-butyryl-1,4-dihydropyrido[3,4-e]-as-triazine]	1500	13	16.67	90	75	20	10	150	20	75
CCCC(C)(COC(N)=O)COC(N)=O [Meprobamate, reference compound]	–	–	14.1	270	–	–	4.1	270	–	–
CCCCC1C(=O)N(c2ccccc2)N(c2ccccc2)C1=O [Phenylbutazone, reference compound]	–	90	–	–	–	–	–	–	–	65
